Measured values: US10829481B2, “Benzimidazole derivatives as modulators of ROR-gamma” (Vitae Pharmaceuticals, LLC, priority 2016, dated 2020)

Columns and labels:
[1] = target: recombinant RORγ Ligand Binding Domain (LBD) protein (Homo sapiens (Human), UniProt P51449); assay: Radio-Ligand RORγ Binding Assay (Assay 1); conditions: competition with 25-hydroxy [26,27-3H]-cholesterol, SPA
Description: Radio-Ligand RORγ Binding Assay (Assay 1)
Compounds described herein were tested for ability to bind to RORγ in a cell-free competition assay with commercially available radio-ligand (RL), 25-hydroxy [26,27-^3H]-cholesterol (PerkinElmer, Cat. #NET674250UC), for a ligand binding site on a recombinant RORγ Ligand Binding Domain (LBD) protein expressed as a 6×His-Glutathione-S-Transferase (GST) fusion. The assay was performed in 96-well SPA plates (PerkinElmer, Cat. #1450-401) in 50 mM HEPES buffer, pH 7.4, containing 150 mM NaCl, 5 mM MgCl2, 10% (v/v) glycerol, 2 mM CHAPS, 0.5 mM β-octylglucopyranoside and 5 mM DTT. Tested compounds were dissolved in DMSO, and semi-log (3.162×) serial dilutions of the compounds were prepared in the same solvent. Two μL of the DMSO solutions were mixed with 28 μL of 8.6 nM 25-hydroxy [26,27-^3H]-cholesterol and 50 μL of 24 nM RORγ LBD. The plate was shaken at 700 rpm for 20 min and incubated for 10 min at rt, after which 40 μL of poly-Lys YSi SPA beads (PerkinElmer, Cat. #RPNQ0010) were added to achieve […] of the beads per well. The plate was incubated on an orbital shaker for 20 min and then for 10 min without agitation at rt. SPA signal for tritium beta radiation was registered on PerkinElmer Microbeta plate reader. […] The percent inhibition vs. concentration data were fit into a four-parameter model, and IC50 values were calculated from the fit as the concentrations corresponding to the inflection points on the dose-response curves. Inhibitory constants (Ki) were calculated using the following equation, where [RL] is the concentration in the assay and KD is a dissociation constant of 25-hydroxy [26,27-^3H]-cholesterol: […]

[2] = target: full-length RORγt in Jurkat cells (Homo sapiens (Human), UniProt P51449); assay: RORγt 5×RORE Assay in Jurkat Cells (Assay 2); format: cell-based; conditions: 5×RORE Nanoluc luciferase reporter
Chain of full-length RORγt in Jurkat cells (P51449 other isoform, or with tags, fused parts or gaps): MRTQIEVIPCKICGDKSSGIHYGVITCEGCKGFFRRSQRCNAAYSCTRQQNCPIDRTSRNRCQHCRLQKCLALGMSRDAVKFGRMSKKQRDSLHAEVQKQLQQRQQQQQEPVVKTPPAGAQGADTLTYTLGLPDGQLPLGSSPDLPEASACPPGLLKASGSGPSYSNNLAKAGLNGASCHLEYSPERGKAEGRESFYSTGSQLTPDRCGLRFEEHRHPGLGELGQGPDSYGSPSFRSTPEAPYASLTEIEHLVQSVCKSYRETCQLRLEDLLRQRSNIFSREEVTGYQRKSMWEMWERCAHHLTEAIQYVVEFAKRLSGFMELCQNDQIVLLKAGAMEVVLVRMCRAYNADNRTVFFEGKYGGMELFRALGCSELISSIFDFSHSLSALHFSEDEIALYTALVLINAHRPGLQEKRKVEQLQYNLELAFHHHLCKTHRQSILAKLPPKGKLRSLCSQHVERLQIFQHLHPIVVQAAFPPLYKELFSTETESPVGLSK
Description: RORγt 5×RORE Assay in Jurkat Cells (Assay 2)
Compounds described herein were tested for RORγ inverse agonist activity in a cell-based, transcriptional activity assay. Secreted Nanoluc® luciferase was used as a reporter for transcriptional activity of the full-length RORγt in Jurkat cells (ATCC, Cat. #TIB-152). […] (Promega, Cat. #N1021) using KpnI and HindIII restriction sites. […] After 5-6 hrs of incubation at 37° C./5% CO2, the cells were collected, resuspended in phenol-red free RPMI media containing 10% (v/v) delipidated FBS (Hyclone, Cat. #SH30855.03) and dispensed into 96-well clear bottom tissue culture plates (CoStar, Cat. #3603), at 80,000 cells per well. Tested compounds were added to the cells in the same media (final concentration of DMSO was 0.1% (v/v)), and the plates were incubated at 37° C./5% CO2 for 16-18 hrs. Luciferase activity in the conditioned supernatants was determined with NanoGlo® assay reagents (Promega, Cat. #N1130).

Chain of recombinant RORγ Ligand Binding Domain (LBD) protein (P51449 269-508): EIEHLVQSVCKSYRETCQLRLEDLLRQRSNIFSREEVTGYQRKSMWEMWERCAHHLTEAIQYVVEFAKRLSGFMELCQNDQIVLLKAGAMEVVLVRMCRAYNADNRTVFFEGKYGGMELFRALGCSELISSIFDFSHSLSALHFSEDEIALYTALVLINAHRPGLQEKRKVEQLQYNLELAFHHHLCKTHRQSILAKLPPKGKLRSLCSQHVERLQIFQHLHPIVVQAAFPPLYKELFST

Compound | Ki [1] [µM] | IC50 [2] [µM]
1-((2,2-difluorobenzo[d][1,3]dioxol-4-yl)methyl)-2-(difluoromethyl)-N-(4-((2-hydroxyethyl)sulfonyl)benzyl)-1H-benzo[d]imidazole-5-carboxamide [I-44] | < 0.1 | < 0.1
1-((2,2-difluorobenzo[d][1,3]dioxol-4-yl)methyl)-N-((R)-1-(4-(ethylsulfonyl)phenyl)-2-hydroxyethyl)-2-((R)-tetrahydrofuran-2-yl)-1H-benzo[d]imidazole-5-carboxamide [I-15] | < 0.1 | < 0.1
2-cyclopropyl-N-(4-(ethylsulfonyl)benzyl)-1-((6-oxo-1-(2,2,2-trifluoroethyl)-1,6-dihydropyridin-3-yl)methyl)-1H-benzo[d]imidazole-5-carboxamide [I-117] | > 1 | –
CCS(=O)(=O)c1ccc([C@H](CO)NC(=O)c2ccc3c(c2)nc(C2CC2)n3Cc2cccc3c2OC(F)(F)O3)cc1 [I-12, (R)-2-cyclopropyl-1-((2,2-difluorobenzo[d][1,3]dioxol-4-yl)methyl)-N-(1-(4-(ethylsulfonyl)phenyl)-2-hydroxyethyl)-1H-benzo[d]imidazole-5-carboxamide] | – | < 0.1
CCS(=O)(=O)c1ccc([C@H](CO)NC(=O)c2ccc3c(c2)nc(C2(F)CCC2)n3Cc2cccc3c2OC(F)(F)O3)cc1 [I-19, (R)-1-((2,2-difluorobenzo[d][1,3]dioxol-4-yl)methyl)-N-(1-(4-(ethylsulfonyl)phenyl)-2-hydroxyethyl)-2-(1-fluorocyclobutyl)-1H-benzo[d]imidazole-5-carboxamide] | – | < 0.1
CCS(=O)(=O)c1ccc(CNC(=O)c2ccc3c(c2)nc(C(F)(F)F)n3Cc2nnc3n2CCC3)cc1 [I-86, 1-((6,7-dihydro-5H-pyrrolo[2,1-c][1,2,4]triazol-3-yl)methyl)-N-(4-(ethylsulfonyl)benzyl)-2-(trifluoromethyl)-1H-benzo[d]imidazole-5-carboxamide] | > 1 | –
CCS(=O)(=O)c1ccc(CNC(=O)c2ccc3c(c2)nc(C2CC2)n3C[C@H]2CCN(C(=O)OC(C)(C)C)C2)cc1 [I-107, tert-butyl (R)-3-((2-cyclopropyl-5-((4-(ethylsulfonyl)benzyl)carbamoyl)-1H-benzo[d]imidazol-1-yl)methyl)pyrrolidine-1-carboxylate] | > 1 | –
CCS(=O)(=O)c1ccc(CNC(=O)c2ccc3c(c2)nc(C2CC2)n3C[C@H]2CCCN2C(=O)OC(C)(C)C)cc1 [I-108, tert-butyl (R)-2-((2-cyclopropyl-5-((4-(ethylsulfonyl)benzyl)carbamoyl)-1H-benzo[d]imidazol-1-yl)methyl)pyrrolidine-1-carboxylate] | > 1 | –
CCS(=O)(=O)c1ccc(CNC(=O)c2ccc3c(c2)nc(C2CC2)n3Cc2cnn(CC(F)(F)F)c2)cc1 [I-111, 2-cyclopropyl-N-(4-(ethylsulfonyl)benzyl)-1-((1-(2,2,2-trifluoroethyl)-1H-pyrazol-4-yl)methyl)-1H-benzo[d]imidazole-5-carboxamide] | > 1 | –
CCS(=O)(=O)c1ccc(CNC(=O)c2ccc3c(c2)nc(C2CC2)n3Cc2ccn(CC(F)(F)F)n2)cc1 [I-114, 2-cyclopropyl-N-(4-(ethylsulfonyl)benzyl)-1-((1-(2,2,2-trifluoroethyl)-1H-pyrazol-3-yl)methyl)-1H-benzo[d]imidazole-5-carboxamide] | > 1 | –
CCS(=O)(=O)c1ccc(CNC(=O)c2ccc3c(c2)nc(C(F)(F)F)n3Cc2cccn(C)c2=O)cc1 [I-146, N-(4-(ethylsulfonyl)benzyl)-1-((1-methyl-2-oxo-1,2-dihydropyridin-3-yl)methyl)-2-(trifluoromethyl)-1H-benzo[d]imidazole-5-carboxamide] | 0.1 to 1 | –
CCS(=O)(=O)c1ccc(CNC(=O)c2ccc3c(c2)nc(C2CC2)n3C[C@H]2CCN(CC(F)(F)F)C2)cc1 [I-156, (S)-2-cyclopropyl-N-(4-(ethylsulfonyl)benzyl)-1-((1-(2,2,2-trifluoroethyl)pyrrolidin-3-yl)methyl)-1H-benzo[d]imidazole-5-carboxamide] | > 1 | –
CCS(=O)(=O)c1ccc(CNC(=O)c2ccc3c(c2)nc(C2CC2)n3C[C@H]2CCCN2CC(F)(F)F)cc1 [I-157, (R)-2-cyclopropyl-N-(4-(ethylsulfonyl)benzyl)-1-((1-(2,2,2-trifluoroethyl)pyrrolidin-2-yl)methyl)-1H-benzo[d]imidazole-5-carboxamide] | > 1 | –
CCS(=O)(=O)c1ccc(CNC(=O)c2ccc3c(c2)nc(C2CC2)n3C[C@H]2CCN(c3ncc(F)cn3)C2)cc1 [I-159, (R)-2-cyclopropyl-N-(4-(ethylsulfonyl)benzyl)-1-((1-(5-fluoropyrimidin-2-yl)pyrrolidin-3-yl)methyl)-1H-benzo[d]imidazole-5-carboxamide] | > 1 | –
CCS(=O)(=O)c1ccc(CNC(=O)c2ccc3c(c2)nc(C(F)(F)F)n3Cc2cccc3c2OC(F)(F)O3)[n+]([O-])c1 [I-161, 2-((1-((2,2-difluorobenzo[d][1,3]dioxol-4-yl)methyl)-2-(trifluoromethyl)-1H-benzo[d]imidazole-5-carboxamido)methyl)-5-(ethylsulfonyl)pyridine 1-oxide] | – | < 0.1
CN1CCN(S(C)(=O)=O)CCC1CNC(=O)c1ccc2c(c1)nc(C(F)(F)F)n2Cc1cccc2c1OC(F)(F)O2 (stereo not shown) [I-171, 1-((2,2-difluorobenzo[d][1,3]dioxol-4-yl)methyl)-N-((4-methyl-1-(methylsulfonyl)-1,4-diazepan-5-yl)methyl)-2-(trifluoromethyl)-1H-benzo[d]imidazole-5-carboxamide] | 0.1 to 1 | –

Further lines, results first:

Ki [1] [µM] | IC50 [2] [µM] | Compound
0.1 to 1 | – | CCOC(=O)Cc1ccc(CC(=O)Nc2ccc3c(c2)nc(C(F)(F)F)n3Cc2cccc3c2OC(F)(F)O3)cc1 [I-7, ethyl 2-(4-(2-((1-((2,2-difluorobenzo[d][1,3]dioxol-4-yl)methyl)-2-(trifluoromethyl)-1H-benzo[d]imidazol-5-yl)amino)-2-oxoethyl)phenyl)acetate]
0.1 to 1 | – | CCS(=O)(=O)c1ccc(CNC(=O)c2ccc3c(c2)nc([C@H]2C[C@H]2C#N)n3Cc2cccc3c2OC(F)(F)O3)cc1 [I-56, 2-((1S,2R)-2-cyanocyclopropyl)-1-((2,2-difluorobenzo[d][1,3]dioxol-4-yl)methyl)-N-(4-(ethylsulfonyl)benzyl)-1H-benzo[d]imidazole-5-carboxamide]
0.1 to 1 | – | CCS(=O)(=O)c1ccc(CNC(=O)c2ccc3c(c2)nc(C2CC2)n3Cc2cccc(C#N)c2)cc1 [I-112, 1-(3-cyanobenzyl)-2-cyclopropyl-N-(4-(ethylsulfonyl)benzyl)-1H-benzo[d]imidazole-5-carboxamide]
0.1 to 1 | – | CCS(=O)(=O)c1ccc([C@@H](CO)NC(=O)c2ccc3c(c2)nc(C2CC2)n3Cc2cccc3c2OC(F)(F)O3)nc1 [I-133.2, (S)-2-cyclopropyl-1-((2,2-difluorobenzo[d][1,3]dioxol-4-yl)methyl)-N-(1-(5-(ethylsulfonyl)pyridin-2-yl)-2-hydroxyethyl)-1H-benzo[d]imidazole-5-carboxamide]
0.1 to 1 | – | CS(=O)(=O)c1ccc([C@H](CO)NC(=O)c2ccc3c(c2)nc(C(F)(F)F)n3Cc2cccc3c2OC(F)(F)O3)nc1 [I-135, (R)-1-((2,2-difluorobenzo[d][1,3]dioxol-4-yl)methyl)-N-(2-hydroxy-1-(5-(methylsulfonyl)pyridin-2-yl)ethyl)-2-(trifluoromethyl)-1H-benzo[d]imidazole-5-carboxamide]
0.1 to 1 | – | CCS(=O)(=O)c1ccc(CNC(=O)c2ccc3c(c2)nc(C(F)(F)F)n3CC2CCN(C(=O)OC(C)(C)C)CC2)cc1 [I-145, tert-butyl 4-((5-((4-(ethylsulfonyl)benzyl)carbamoyl)-2-(trifluoromethyl)-1H-benzo[d]imidazol-1-yl)methyl)piperidine-1-carboxylate]
< 0.1 | – | CCS(=O)(=O)c1ccc(C(CO)(CO)NC(=O)c2ccc3c(c2)nc(C(F)(F)F)n3Cc2cccc3c2OC(F)(F)O3)cc1 [I-174, 1-((2,2-difluorobenzo[d][1,3]dioxol-4-yl)methyl)-N-(2-(4-(ethylsulfonyl)phenyl)-1,3-dihydroxypropan-2-yl)-2-(trifluoromethyl)-1H-benzo[d]imidazole-5-carboxamide]
